Measured values taken from patent publication US20060122588A1, “Cryosurgery compositions and methods” (Regents of the University of Minnesota, priority 2002, published 2006).

Columns and labels:
[1] = cited from earlier work; for % Eutectic Concentration (wt./wt.) / Eutectic Temp.: solute in water; for Eutectic Concentration: Table 1, salts used to induce eutectic crystallization
AT-1 tumor tissues = test: Histology of AT-1 tumor tissues 2 days after freezing experiments on the directional solidification stage; design: species or system rat; settings: frozen to −20° C., 400×
Protocol: FIGS. 7A-7F show images of histology preparations of AT-1 tumor tissues 2 days after the freezing experiments on the directional solidification stage. Control tissues are very similar in all cases (FIGS. 7A, 7C, and 7E). Some cytoplasmic retraction is seen after salt infusion in FIGS. 7C and 7E over the control sample (FIG. 7A), but overall viability appears high. After freezing the samples to −20° C., a reduction in the number and quality of nuclei in all frozen samples is noted (FIGS. 7B, 7D, and 7F). Nuclear changes include darkening, reduction in size of chromatin, pykonsis and in some cases loss of nuclear material. In addition, cell membranes in frozen salt infused samples are indistinct and difficult to identify. All of these changes appear accentuated in the KNO3 and KCl infused samples.

[2] = system: AT-1 rat prostate tumor cells; test: Post-thaw viability of AT-1 cell suspensions in various media on the directional solidification stage (Hoechst/Propidium Iodide membrane integrity assay); format: cell-based; settings: end temperature −30° C., 5° C./minute
Protocol: (§1) In freezing experiments with cell suspensions, a half eutectic concentration solution was mixed with cell culture media (Dulbecco's Modified Eagle's Medium/F-12) in 1 (salt solution): 2 (culture media) volume ratio.
AT-1 rat prostate tumor cells were cultured in vitro under standard tissue culture conditions, as are known. AT-1 cells were suspended in each eutectic changing solution, and kept at about 4° C.
Cultured AT-1 cells were separated from a culture flask by immersion in 0.05% (by volume) trypsin and 0.53 mM EDTA, and then suspended in 5% (by volume) fetal bovine serum (FBS)-supplemented medium such that the final trypsin concentration was <0.005% (by volume). After the separation, the cells were pelleted by centrifugation and the excess medium was removed. […]
Post-thaw viabilities of AT-1 cell suspensions in various media were assessed for varying end temperature of the freezing and thawing protocol on the directional solidification stage. […]
The concentrations of these solutions were determined so that the use of these solutions would not result in excessive killing of the AT-1 cells due to high osmotic pressure. […]
Viability of the AT-1 cell suspensions was measured by a membrane integrity assay using Hoechst and Propidium Iodide. […] After incubation, viability was assessed under a fluorescent microscope by scoring more than 200 cells for each sample.

[3] = Onset temperature of eutectic solidification of AT-1 cell suspension media by DSC; format: physicochemical; settings: AT-1 cell suspension medium
Protocol: Controlled cooling and thawing rate were achieved by the DSC and directional solidification stage. Unless otherwise mentioned, cooling and thawing rates were 5° C./min.
The onset temperature of the eutectic solidification was measured using the DSC, as described herein. Generally speaking, the viability of the AT-1 cells in the suspension solutions decreased with end temperature regardless of the media used. Note that the temperatures of noticeable viability drop to coincide with the eutectic crystallization temperatures of each suspension media. When the viability of the AT-1 cell suspension in the 1×NaCl (the onset of eutectic crystallization at about […]) is compared with that of KCl infused AT-1 cell suspension (the onset of eutectic crystallization at about −21° C.), there is 70% less viability at −30° C. in the KCl infused AT-1 cell suspension.

[4] = system: AT-1 rat prostate tumor cells; test: Post-thaw viability with half eutectic concentration KNO3 solution (Example 4); format: cell-based
Protocol: as §1
AT-1 rat prostate tumor cells were cultured in vitro, as described above. Cultured AT-1 cells were separated from a culture flask by immersion in 0.05% (by volume) trypsin and 0.53 mM EDTA, and then suspended in 5% (by volume) fetal bovine serum (FBS)-supplemented medium such that the final trypsin concentration was <0.005% (by volume). After the separation, the cells were pelleted by centrifugation and the excess medium was removed. The cell pellet was re-suspended into various aqueous solutions (about 1.0 ml) before experiments and nominal cell concentration was about 2×10^6 cells/ml. The suspensions were stored in 1.5 ml microcentrifuge tube on ice (about 4° C.).
Liver tissues were also isolated from the rats.
The directional solidification stage, as described above, was used in the experiments. Controlled cooling and thawing rate were achieved by the DSC and directional solidification stage. Unless otherwise mentioned, cooling and thawing rates were 50° C./min.
For the directional solidification stage, fast thawing rates (about 200° C./min) were employed. […]
Post-thaw viabilities of AT-1 cell suspensions in various media were assessed. […]

| Structure (SMILES) | % Eutectic Concentration (wt./wt.) [1] | Eutectic Temp. [1] [°C] | Eutectic Concentration [1] [% wt./wt.] | also measured |
| --- | --- | --- | --- | --- |
| [Ca+2].[Cl-].[Cl-] [CaCl2] | 29.8 % (wt./wt.) | −55 |  |  |
| [Br-].[K+] [KBr] |  | −13.0 |  |  |
| [Cl-].[K+] [KCl, potassium chloride] | 19.7% (wt./wt.) | −11.1 | 19.7 | histological changes after freezing (nuclei, cell membranes) (AT-1 tumor tissues): accentuated; less viability than AT-1 cell suspension in 1×NaCl [2]: 70%; onset of eutectic crystallization [3]: about −21 °C |
| O=[N+]([O-])[O-].[K+] [KNO3, potassium nitrate] | 10.9% (wt./wt.) | −2.9 | 10.9 | histological changes after freezing (nuclei, cell membranes) (AT-1 tumor tissues): accentuated; post-thaw viability ([4]; frozen to about −20° C.): 15.2±7.1%; viability of control samples ([4]; no freeze/thaw procedure): 92.1% |
| [Cl-].[Cl-].[Mg+2] [MgCl2] | 21.6 % (wt./wt.) | −33.6 |  |  |
| O=S(=O)([O-])[O-].[Mg+2] [MgSO4] | 19.0% (wt./wt.) | −3.9 |  |  |
| Cl.N [NH4Cl] | 18.6 % (wt./wt.) | −15.8 |  |  |
| [Cl-].[Na+] [NaCl, sodium chloride] | 23.6% (wt./wt.) | −21.8 | 23.6 | eutectic point of the solution ([1]; thermodynamic equilibrium): approximately −21.1 °C |
| OC[C@H]1O[C@@](CO)(O[C@H]2O[C@H](CO)[C@@H](O)[C@H](O)[C@H]2O)[C@@H](O)[C@@H]1O [Sucrose] | 62.5 % (wt./wt.) | −13.5 |  |  |
